System: Crude diglycosidase
Experiment: Examination of temperature in the conversion into isoflavone aglycons by diglycosidase using soybean materials
Assay type: biochemical, Penicillium multicolor IAM7153
Parameters: Decomposition efficiency of glycitin family in roasted soy flour / Decomposition efficiency of daidzin family in roasted soy flour / Decomposition efficiency of genistin family in soymilk / Decomposition efficiency of daidzin family in soymilk / Decomposition efficiency of glycitin family in defatted soybean / Decomposition efficiency of daidzin family in defatted soybean: concentration or dose not given beside the values
In short: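 Soybean materials (50 mg) suspended in 20 mM acetate buffer pH 4.0 reacted with crude diglycosidase diluted to 1.88 AU/mL at 80, 65, 55, 45, 37 or 30° C. Reactions stopped with ethanol at 0, 1, 3 and 6 h; isoflavone glycosides and aglycons in supernatant detected by HPLC.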

[1] = 30 °C, heat treatment of enzyme: no, 0 h
[2] = 30 °C, heat treatment of enzyme: no, 1 h
[3] = 30 °C, heat treatment of enzyme: no, 3 h
[4] = 30 °C, heat treatment of enzyme: no, 6 h
[5] = 30 °C, heat treatment of enzyme: yes, 6 h
[6] = 45 °C, heat treatment of enzyme: no, 0 h
[7] = 45 °C, heat treatment of enzyme: no, 1 h
[8] = 45 °C, heat treatment of enzyme: no, 3 h
[9] = 45 °C, heat treatment of enzyme: no, 6 h
[10] = 45 °C, heat treatment of enzyme: yes, 6 h
[11] = 55 °C, heat treatment of enzyme: no, 0 h
[12] = 55 °C, heat treatment of enzyme: no, 1 h
[13] = 55 °C, heat treatment of enzyme: no, 3 h
[14] = 55 °C, heat treatment of enzyme: no, 6 h
[15] = 55 °C, heat treatment of enzyme: yes, 6 h
[16] = 65 °C, heat treatment of enzyme: no, 0 h
[17] = 65 °C, heat treatment of enzyme: no, 1 h
[18] = 65 °C, heat treatment of enzyme: no, 3 h
[19] = 65 °C, heat treatment of enzyme: no, 6 h
[20] = 65 °C, heat treatment of enzyme: yes, 6 h
[21] = 80 °C, heat treatment of enzyme: no, 0 h
[22] = 80 °C, heat treatment of enzyme: no, 1 h
[23] = 80 °C, heat treatment of enzyme: no, 3 h
[24] = 80 °C, heat treatment of enzyme: no, 6 h
[25] = 80 °C, heat treatment of enzyme: yes, 6 h

COc1cc2c(=O)c(-c3ccc(O)cc3)coc2cc1O[C@@H]1O[C@H](COC(=O)CC(=O)O)[C@@H](O)[C@H](O)[C@H]1O [malonylglycitin, 6″-O-malonylglycitin]
Decomposition efficiency of glycitin family in defatted soybean (30° C., heat treatment of enzyme no, reaction time 0 h): 61.3%
Decomposition efficiency of glycitin family in defatted soybean (30° C., heat treatment of enzyme no, reaction time 1 h): 48.3%
Decomposition efficiency of glycitin family in defatted soybean (30° C., heat treatment of enzyme no, reaction time 3 h): 44.6%
Decomposition efficiency of glycitin family in defatted soybean (30° C., heat treatment of enzyme no, reaction time 6 h): 45.6%
Decomposition efficiency of glycitin family in defatted soybean (30° C., heat treatment of enzyme yes, reaction time 6 h): 45.1%
Decomposition efficiency of glycitin family in concentrated soybean protein [1]: 0.4%
Decomposition efficiency of glycitin family in roasted soy flour [1]: not detected
Decomposition efficiency of glycitin family in soymilk [1]: 48.0%
Decomposition efficiency of glycitin family in concentrated soybean protein [2]: 0.5%
Decomposition efficiency of glycitin family in roasted soy flour [2]: not detected
Decomposition efficiency of glycitin family in soymilk [2]: 51.0%
Decomposition efficiency of glycitin family in concentrated soybean protein [3]: 0.5%
Decomposition efficiency of glycitin family in roasted soy flour [3]: not detected
Decomposition efficiency of glycitin family in soymilk [3]: 39.6%
Decomposition efficiency of glycitin family in concentrated soybean protein [4]: 0.5%
Decomposition efficiency of glycitin family in roasted soy flour [4]: not detected
Decomposition efficiency of glycitin family in soymilk [4]: 28.4%
Decomposition efficiency of glycitin family in concentrated soybean protein [5]: 0.4%
Decomposition efficiency of glycitin family in roasted soy flour [5]: not detected
Decomposition efficiency of glycitin family in soymilk [5]: 47.7%
Decomposition efficiency of glycitin family in defatted soybean (45° C., heat treatment of enzyme no, reaction time 0 h): 65.2%
Decomposition efficiency of glycitin family in defatted soybean (45° C., heat treatment of enzyme no, reaction time 1 h): 44.3%
Decomposition efficiency of glycitin family in defatted soybean (45° C., heat treatment of enzyme no, reaction time 3 h): 44.8%
Decomposition efficiency of glycitin family in defatted soybean (45° C., heat treatment of enzyme no, reaction time 6 h): 41.0%
Decomposition efficiency of glycitin family in defatted soybean (45° C., heat treatment of enzyme yes, reaction time 6 h): 44.2%
Decomposition efficiency of glycitin family in concentrated soybean protein [6]: 0.4%
Decomposition efficiency of glycitin family in roasted soy flour [6]: not detected
Decomposition efficiency of glycitin family in soymilk [6]: 49.1%
Decomposition efficiency of glycitin family in concentrated soybean protein [7]: 0.6%
Decomposition efficiency of glycitin family in roasted soy flour [7]: not detected
Decomposition efficiency of glycitin family in soymilk [7]: 46.2%
Decomposition efficiency of glycitin family in concentrated soybean protein [8]: 0.6%
Decomposition efficiency of glycitin family in roasted soy flour [8]: not detected
Decomposition efficiency of glycitin family in soymilk [8]: 29.9%
Decomposition efficiency of glycitin family in concentrated soybean protein [9]: 0.6%
Decomposition efficiency of glycitin family in roasted soy flour [9]: not detected
Decomposition efficiency of glycitin family in soymilk [9]: 15.3%
Decomposition efficiency of glycitin family in concentrated soybean protein [10]: 0.5%
Decomposition efficiency of glycitin family in roasted soy flour [10]: not detected
Decomposition efficiency of glycitin family in soymilk [10]: 47.2%
Decomposition efficiency of glycitin family in defatted soybean (55° C., heat treatment of enzyme no, reaction time 0 h): 61.3%
Decomposition efficiency of glycitin family in defatted soybean (55° C., heat treatment of enzyme no, reaction time 1 h): 44.8%
Decomposition efficiency of glycitin family in defatted soybean (55° C., heat treatment of enzyme no, reaction time 3 h): 42.6%
Decomposition efficiency of glycitin family in defatted soybean (55° C., heat treatment of enzyme no, reaction time 6 h): 42.7%
Decomposition efficiency of glycitin family in defatted soybean (55° C., heat treatment of enzyme yes, reaction time 6 h): 45.5%
Decomposition efficiency of glycitin family in concentrated soybean protein [11]: 0.4%
Decomposition efficiency of glycitin family in roasted soy flour [11]: not detected
Decomposition efficiency of glycitin family in soymilk [11]: 44.6%
Decomposition efficiency of glycitin family in concentrated soybean protein [12]: 0.5%
Decomposition efficiency of glycitin family in roasted soy flour [12]: not detected
Decomposition efficiency of glycitin family in soymilk [12]: 39.1%
Decomposition efficiency of glycitin family in concentrated soybean protein [13]: 0.5%
Decomposition efficiency of glycitin family in roasted soy flour [13]: not detected
Decomposition efficiency of glycitin family in soymilk [13]: 27.7%
Decomposition efficiency of glycitin family in concentrated soybean protein [14]: 0.5%
Decomposition efficiency of glycitin family in roasted soy flour [14]: not detected
Decomposition efficiency of glycitin family in soymilk [14]: 16.5%
Decomposition efficiency of glycitin family in concentrated soybean protein [15]: 0.4%
Decomposition efficiency of glycitin family in roasted soy flour [15]: not detected
Decomposition efficiency of glycitin family in soymilk [15]: 39.9%
Decomposition efficiency of glycitin family in defatted soybean (65° C., heat treatment of enzyme no, reaction time 0 h): 65.2%
Decomposition efficiency of glycitin family in defatted soybean (65° C., heat treatment of enzyme no, reaction time 1 h): 45.3%
Decomposition efficiency of glycitin family in defatted soybean (65° C., heat treatment of enzyme no, reaction time 3 h): 42.1%
Decomposition efficiency of glycitin family in defatted soybean (65° C., heat treatment of enzyme no, reaction time 6 h): 40.0%
Decomposition efficiency of glycitin family in defatted soybean (65° C., heat treatment of enzyme yes, reaction time 6 h): 48.8%
Decomposition efficiency of glycitin family in concentrated soybean protein [16]: 0.4%
Decomposition efficiency of glycitin family in roasted soy flour [16]: not detected
Decomposition efficiency of glycitin family in soymilk [16]: 48.0%
Decomposition efficiency of glycitin family in concentrated soybean protein [17]: 0.5%
Decomposition efficiency of glycitin family in roasted soy flour [17]: not detected
Decomposition efficiency of glycitin family in soymilk [17]: 42.4%
Decomposition efficiency of glycitin family in concentrated soybean protein [18]: 0.5%
Decomposition efficiency of glycitin family in roasted soy flour [18]: not detected
Decomposition efficiency of glycitin family in soymilk [18]: 34.3%
Decomposition efficiency of glycitin family in concentrated soybean protein [19]: 0.4%
Decomposition efficiency of glycitin family in roasted soy flour [19]: not detected
Decomposition efficiency of glycitin family in soymilk [19]: 25.5%
Decomposition efficiency of glycitin family in concentrated soybean protein [20]: 0.4%
Decomposition efficiency of glycitin family in roasted soy flour [20]: not detected
Decomposition efficiency of glycitin family in soymilk [20]: 36.0%
Decomposition efficiency of glycitin family in defatted soybean (80° C., heat treatment of enzyme no, reaction time 0 h): 65.2%
Decomposition efficiency of glycitin family in defatted soybean (80° C., heat treatment of enzyme no, reaction time 1 h): 46.1%
Decomposition efficiency of glycitin family in defatted soybean (80° C., heat treatment of enzyme no, reaction time 3 h): 45.0%
Decomposition efficiency of glycitin family in defatted soybean (80° C., heat treatment of enzyme no, reaction time 6 h): 40.3%
Decomposition efficiency of glycitin family in defatted soybean (80° C., heat treatment of enzyme yes, reaction time 6 h): 48.1%
Decomposition efficiency of glycitin family in concentrated soybean protein [21]: 0.4%
Decomposition efficiency of glycitin family in roasted soy flour [21]: not detected
Decomposition efficiency of glycitin family in soymilk [21]: 49.1%
Decomposition efficiency of glycitin family in concentrated soybean protein [22]: 0.4%
Decomposition efficiency of glycitin family in roasted soy flour [22]: not detected
Decomposition efficiency of glycitin family in soymilk [22]: 43.6%
Decomposition efficiency of glycitin family in concentrated soybean protein [23]: 0.4%
Decomposition efficiency of glycitin family in roasted soy flour [23]: not detected
Decomposition efficiency of glycitin family in soymilk [23]: 32.6%
Decomposition efficiency of glycitin family in concentrated soybean protein [24]: 0.3%
Decomposition efficiency of glycitin family in roasted soy flour [24]: not detected
Decomposition efficiency of glycitin family in soymilk [24]: 21.3%
Decomposition efficiency of glycitin family in concentrated soybean protein [25]: 0.3%
Decomposition efficiency of glycitin family in roasted soy flour [25]: not detected
Decomposition efficiency of glycitin family in soymilk [25]: 19.3%

Reference: US7118895B2, “Process for producing aglycon by using diglycosidase and flavor-improved food containing the aglycon and converting agent to be used in the process” (Amano Enzyme Inc., priority 2000, dated 2006)
